# Results reported in US20040175353A1, “Cyanoacrylate compositions for prophylactic or therapeutic treatment of diseases manifesting themselves in and/or damage cutaneous tissue” (priority 2001, published 2004).
# Tested on: HSV-I infection around the mouth
# Assay: Initial studies: HSV-I infection around the mouth treated with ethyl cyanoacrylate (Examples 1-3)
# Assay type: in vivo, human
# Description: Examples 1-3 are initial studies describing three patient groups at different stages of development of HSV-I infection around the mouth which has been treated with ethyl cyanoacrylate (LOCTITE 411, Henkel Loctite Adhesive Ltd.). The infected areas were applied about ⅓ drop of liquid ethyl cyanoacrylate by means of a toothpick and the polymerization was allowed to pass off.
# Patient group 1 consisted of three patients without visible symptoms. The group was treated prophylactically as mentioned above under latent HSV-I infection, pronounced prickling and itching in the mucous membrane at the lip being the cause of the treatment.
# Patient group 2 consisted of 2 patients with visible blisters in the corner of the mouth due to infection with HSV-I. The group was treated initially for 3 hours, after which the ethyl cyanoacrylate coat with content of virus and tissue was removed. The treatment was repeated 2 times for 24 hours, after which the coat was removed.
# Patient group 3 consisted of 4 patients all having large suppurating crusts in a large area around the mouth. The group were initially treated by applying liquid ethyl cyanoacrylate which was allowed to polymerise. The polymer coat with adhering crust was removed immediately after polymerization, and the treatment repeated 4 times for 24 hours.
smiles,measurement,setting,value
C=C(C#N)C(=O)OCC [ethyl cyanoacrylate],development of visible blisters or wounds,"Patient group 1: three patients, latent HSV-I infection without visible symptoms, prophylactic treatment, coat removed after overnight",no patients in Patient group 1 developed visible blisters or wounds
same,"visible traces, symptoms and scar formation after treatment","Patient group 2: 2 patients with visible blisters in corner of mouth, 3 hours, then repeated 2 times for 24 hours",no visible traces after the outbreak and both patients were free of symptoms without scar formation
same,symptoms and scar formation after treatment,"Patient group 3, fourth patient, treated for further 24 hours",subsequently had no symptoms or scar formation
same,symptoms and scar formation after treatment,"Patient group 3: 4 patients with large suppurating crusts, crust pulled off, treatment repeated 4 times for 24 hours",three patients had no symptoms or scar formation
